We go through five compounds from US5378725A, “Inhibition of phosphatidylinositol 3-kinase with wortmannin and analogs thereof” (The Arizona Board of Regents, priority 1993, dated 1995).

Experiment [1] concerns the target T1, purified bovine brain PI 3-kinase (Bos taurus, UniProt P32871).
T1 construct: PI 3-kinase was prepared from bovine brain; from tissue; host or cells: bovine brain
Put plainly: Assay of purified PI 3-kinase activity (32P incorporation into phosphatidylinositol, TLC/scintillation). Type of experiment: biochemical. As to conditions: bovine brain purified PI 3-kinase. Here is the method: In another, preferred, method, PI 3-kinase was prepared from bovine brain. Two bovine brains (wet weight about 900 g) were obtained from a local slaughterhouse within minutes of slaughter, packed on ice, and homogenized within one hour. Brains were trimmed of excess fat and blood vessels and then homogenized using a Tekmar Tissuemizer (Cincinnati, Ohio) at 4° C. in 20 mM of Tris(pH 8.3) containing 250 mM of sucrose, 6 mM of β-mercaptoethanol, 1 μg/ml of leupeptin, 1 μg/ml of pepstatin A, 0.4 mM of PMSF, and 1 mM of MgCl2.
Following centrifugation for 60 minutes at 10,000×g, the DH of the supernatant (about 1200 mL) was lowered to 5.75 using dropwise addition of 1M acetic acid at 4° C. After stirring for an additional 15 minutes at 4° C., the solution was centrifuged for 60 minutes at 13,500×g. The supernatant was discarded. Pellets were resuspended in Buffer A (20 mM of Tris, pH 8.3, containing 6 mM of β-mercaptoethanol, 0.1 mM of ethylene glycol-bis(β-aminoethyl ether) N,N,N',N'-tetraacetic acid (EGTA), 1 μg/mL of leupeptin, 1 μg/mL of pepstatin A, and 1 mM of MgCl2), and loaded onto a Fast Flow Q Sepharose column (300 ml) at a flow rate of 5 mL/min at 4° C. After loading, the column was washed with 3 volumes of Buffer A containing 0.1M of KCl and the kinase was then eluted with a linear gradient of Buffer A/0.1M KCl to Buffer A/O.6M KCl at 3 mL/min over 7 volumes.
Fractions were assayed for PI 3-kinase activity using 10 μL of the fraction and phosphatidylinositol as substrate as described below. […] The PI 3-kinase pool was subjected to a 40% ammonium sulfate precipitation. Following centrifugation (60 minutes at 13,500×g), pellets were resuspended in Buffer B (10 mM of potassium phosphate, pH 7.4, containing 6 mM of β-mercaptoethanol, 1 μg/mL of leupeptin, 1 μg/mL of pepstatin A, and 1 mM of MgCl2), and loaded onto a 50 mL hydroxylapatite column (Calbiochem, Inc., La Jolla, Calif.) at 2.5 mL/minute. The column was washed with 150 mL Buffer B until the A280 baseline reached zero, and the kinase was then eluted with a linear gradient of 10-320 mM of KH2 PO4 at 1 mL/minute over 450 minutes.
Active fractions were pooled and then loaded at 3 mL/minute onto a MonoS column (8 ml) (Pharmacia, Inc., Piscataway, N.J.) equilibrated in Buffer C (50 mM of MES, pH 6.2, containing 6 mM of β-mercaptoethanol, 0.1 mM of EGTA, 1 μg/mL of leupeptin, 1 μg/mL of pepstatin A, and 1 mM of MgCl2). PI 3-kinase was eluted with a linear gradient of 0-0.4M KCl in Buffer C over 120 minutes. […] Therefore, the MonoS flow-through was concentrated by tangential flow filtration on a Mini-Ultrasette Omega 50 K membrane (Filtron, Inc., Northborough, Mass.) and diluted in Buffer C to lower the conductivity. The material was then reloaded onto the MonoS column using the above conditions. […] Two pools of phosphatidylinositol kinase activity were obtained in the gradient; each was assayed for PI 3-kinase and PI 4-kinase activity.
Pool I from the MonoS column was diluted with Buffer A and chromatographed on MonoQ (1 ml) and ehted with a gradient of 0-0.4M KCl in Buffer A. The final pool was assayed for PI 3-kinase and PI 4-kinase activity.
PI 3-kinase activity was measured as previously described by Matter, W. F., et al., Biochemical and Biophysical Research Communications, 186:624-631 (1992).

The subject of experiment [2] is PI 4-kinase. Put plainly: Effect on PI 4-kinase. Type of experiment: biochemical.
The subject of the next experiment is phospholipase C. Put plainly: Effect on phospholipase C. The class given is biochemical.
In experiment [3] the target is c-src protein tyrosine kinase (Homo sapiens, UniProt P12931). Nature of the experiment: Effect on c-src protein tyrosine kinase. Type of experiment: biochemical.
Chain of c-src protein tyrosine kinase (P12931 whole entry): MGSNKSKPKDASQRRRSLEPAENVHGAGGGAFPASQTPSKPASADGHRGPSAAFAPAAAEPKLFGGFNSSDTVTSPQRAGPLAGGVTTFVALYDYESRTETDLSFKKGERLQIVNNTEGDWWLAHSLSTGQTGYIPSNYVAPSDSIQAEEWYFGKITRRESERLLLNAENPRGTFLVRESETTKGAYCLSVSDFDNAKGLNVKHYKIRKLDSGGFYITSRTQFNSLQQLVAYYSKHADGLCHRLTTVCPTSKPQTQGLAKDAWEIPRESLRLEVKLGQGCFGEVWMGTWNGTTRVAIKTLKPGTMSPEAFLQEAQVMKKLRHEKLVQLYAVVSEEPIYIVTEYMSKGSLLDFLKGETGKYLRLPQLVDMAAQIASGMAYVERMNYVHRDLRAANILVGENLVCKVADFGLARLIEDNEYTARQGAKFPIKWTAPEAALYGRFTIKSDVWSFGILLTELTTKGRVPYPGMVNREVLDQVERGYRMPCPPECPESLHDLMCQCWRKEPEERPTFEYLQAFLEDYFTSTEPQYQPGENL
Experiment [4] has as its system protein kinase C. Nature of the experiment: Effect on protein kinase C. Type of experiment: biochemical.
Experiment [5] has as its system PI 3-kinase in v-sis NIH 3T3 cells. Nature of the experiment: Assay of whole cell PI 3-kinase activity (PDGF-stimulated phosphatidylinositol-3-phosphate formation). The class given is cell-based. As to conditions: 1.3 μM, 100 ng/mL PDGF, 10 min contact before stimulation. Here is the method:
The cells were washed with phosphate-free DMEM and incubated in the same medium containing 0.1% fatty acid free bovine serum, albumin and 0.15 mCi/mL [^32 P]H3 PO4 (ICN Biomedicals, Irvine, Calif.) for 70 minutes. Inhibitor candidates were prepared using the above-stated procedure, and placed in contact with the cells for 10 minutes prior to their stimulation. The cells were stimulated with 100 ng/mL of PDGF for 10 minutes. To measure phosphatidylinositol-3-phosphates in the cells, the medium was removed and the cells washed once with phosphate buffered saline before adding 4 mL/flask of HCl:methanol (1:1 by volume). The cells were scraped from the flasks and total lipids were extracted by the method described by Folch, J., et al., J. Biol. Chem., 226:497-509 (1957). Deacylated lipids were prepared using methylamine via the method described by Clark, N. G., et al., BioChem J., 195: 301-306, (1981), and separated by HPLC using a 10 cm RAC II Partisil 5 SAX column (Whatman, Kent, U.K.) eluted with an NH4 H2 PO4 gradient at a flow of 0.8 mL/minute as described by Auger, K. R., et al., Methods in Inositide Research, pp. 159-166 [Irvine, R. F., Ed., Raven Press, Ltd., New York, N.Y. (1990)]. Detection of the eluting peaks was by a radioactive flow detector (Flo-One Beta, Model A515, Radiomatic Instruments, Meriden, Conn.). […]

In experiment [6] the test system is PI 4-kinase. The following applies: Matter, et al.; cited from earlier work.
Experiment [7] deals with protein kinase C. The following applies: Matter, et al.; cited from earlier work.
The subject of another experiment is PI 3-kinase. The following applies: Matter, et al.; cited from earlier work.
The mark [8] stands for this setting: 10 min preincubation, 20 μM ATP, 3% DMSO, read-out: IC50 (ng/mL) (converted).
Setting [9] is: IC50 (ng/mL), 10 min preincubation, 20 μM ATP, 3% DMSO.
Where [10] appears, read: IC50, molar value in parentheses, value printed in parentheses beside ng/mL.

Read-outs that look alike come from different tables or passages of the source.

T1 sequence (P32871 whole entry): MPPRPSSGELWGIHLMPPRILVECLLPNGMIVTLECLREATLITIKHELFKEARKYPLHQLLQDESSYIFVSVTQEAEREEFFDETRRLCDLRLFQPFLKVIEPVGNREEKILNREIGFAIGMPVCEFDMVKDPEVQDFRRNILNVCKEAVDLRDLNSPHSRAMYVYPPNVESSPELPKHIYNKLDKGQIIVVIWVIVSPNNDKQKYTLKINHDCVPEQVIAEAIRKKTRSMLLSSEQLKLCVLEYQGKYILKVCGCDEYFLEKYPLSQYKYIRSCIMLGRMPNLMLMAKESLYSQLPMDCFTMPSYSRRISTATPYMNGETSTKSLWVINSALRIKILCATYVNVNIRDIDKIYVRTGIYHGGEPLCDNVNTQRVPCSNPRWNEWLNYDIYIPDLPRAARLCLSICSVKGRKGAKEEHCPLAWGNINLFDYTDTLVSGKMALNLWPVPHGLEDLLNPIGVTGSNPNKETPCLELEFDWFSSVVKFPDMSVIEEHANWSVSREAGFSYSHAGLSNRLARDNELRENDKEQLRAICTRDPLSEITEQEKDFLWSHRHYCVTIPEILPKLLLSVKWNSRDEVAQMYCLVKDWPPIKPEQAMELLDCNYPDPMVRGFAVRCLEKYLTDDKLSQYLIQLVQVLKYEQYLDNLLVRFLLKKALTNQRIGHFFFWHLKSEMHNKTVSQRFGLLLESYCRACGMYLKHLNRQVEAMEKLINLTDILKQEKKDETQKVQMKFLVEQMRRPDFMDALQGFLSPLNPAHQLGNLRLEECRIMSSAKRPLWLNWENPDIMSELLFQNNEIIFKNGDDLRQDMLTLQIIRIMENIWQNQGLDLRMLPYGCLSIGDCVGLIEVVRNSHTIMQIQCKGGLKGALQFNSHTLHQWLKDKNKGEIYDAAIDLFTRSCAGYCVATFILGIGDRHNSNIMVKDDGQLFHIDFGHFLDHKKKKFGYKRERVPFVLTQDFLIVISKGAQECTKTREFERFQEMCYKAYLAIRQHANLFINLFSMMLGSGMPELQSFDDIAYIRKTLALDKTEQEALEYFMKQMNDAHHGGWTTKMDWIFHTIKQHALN
T1 sequence (P23727 whole entry partner): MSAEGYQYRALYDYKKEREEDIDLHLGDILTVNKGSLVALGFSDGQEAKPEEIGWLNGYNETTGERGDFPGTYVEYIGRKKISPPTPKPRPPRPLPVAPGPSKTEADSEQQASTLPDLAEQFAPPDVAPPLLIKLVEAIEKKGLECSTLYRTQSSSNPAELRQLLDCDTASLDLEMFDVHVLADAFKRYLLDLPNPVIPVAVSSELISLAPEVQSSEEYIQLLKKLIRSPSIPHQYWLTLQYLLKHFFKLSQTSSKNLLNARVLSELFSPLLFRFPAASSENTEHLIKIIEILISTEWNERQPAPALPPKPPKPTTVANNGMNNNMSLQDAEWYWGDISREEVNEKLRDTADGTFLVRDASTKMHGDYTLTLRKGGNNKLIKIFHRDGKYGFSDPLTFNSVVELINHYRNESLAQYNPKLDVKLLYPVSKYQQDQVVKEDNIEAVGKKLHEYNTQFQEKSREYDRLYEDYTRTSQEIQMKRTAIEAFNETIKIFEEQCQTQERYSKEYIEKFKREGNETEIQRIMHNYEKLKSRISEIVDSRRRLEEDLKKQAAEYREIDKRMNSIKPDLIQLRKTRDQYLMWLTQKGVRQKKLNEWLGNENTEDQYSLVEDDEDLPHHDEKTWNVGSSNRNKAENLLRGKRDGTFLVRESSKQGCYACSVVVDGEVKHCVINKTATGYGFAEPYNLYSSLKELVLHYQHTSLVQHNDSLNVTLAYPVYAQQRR

Turning to `COC[C@H]1OC(=O)c2coc3c2[C@@]1(C)C1=C(C3=O)[C@@H]2CCC(=O)[C@@]2(C)CC1` [Ib, 11-desacetoxywortmannin], the IC50 in experiment [1] (setting [8]) was 16.7 nM; in [1] (value printed in parentheses beside ng/mL, read-out: IC50, molar value in parentheses), 16.7 nM.

Regarding `COC[C@H]1OC(=O)c2coc3c2[C@@]1(C)C1=C(C3=O)[C@@H]2CCC(=O)[C@@]2(C)C[C@H]1OC(C)=O` [Ia, wortmannin], the IC50 in experiment [1] (setting [9]) and in experiment [1] (setting [10]) was 4.2 nM throughout. Further, the “effect on PI 4-kinase” value in the experiment with PI 4-kinase [2] is “no effect”. For the same compound, in the experiment with phospholipase C, the “effect on phospholipase C” value was “no effect”. The “effect on c-src protein tyrosine kinase” value in [3] is recorded as “no effect”. The “effect on protein kinase C” value in the experiment with protein kinase C [4] was “no effect”. Besides, the “inhibition of platelet derived growth factor stimulated phosphatidylinositol-3-phosphate formation in whole cells” value in experiment [5] is on record as “almost complete inhibition”.

Regarding `COC[C@H]1OC(=O)c2coc3c2[C@@]1(C)C1=CC[C@]2(C)C(=O)CC[C@H]2[C@@H]1C3=O` [II, Δ9,11-dehydrodesacetoxywortmannin], the IC50 in experiment [1] (setting [9]) is 54 nM; in [1] (setting [10]), 59 nM.

Take `COC(=O)c1coc2c(O)c3c(c(C)c12)C=C[C@]1(C)C(=O)CC[C@@H]31` [IIIb, opened A-ring methyl ester of wortmannin]: the IC50 in experiment [1] (setting [8]) was 4600 nM.

Turning to `O=c1c(O)c(-c2ccc(O)c(O)c2)oc2cc(O)cc(O)c12` [quercetin], the “inhibition of PI 4-kinase” value with PI 4-kinase [6] is “inhibit”. For the same compound, the “inhibition of protein kinase C” value in the experiment on protein kinase C [7] is “inhibit”. The “inhibition of PI 3-kinase” value with PI 3-kinase is given as “inhibit”.
